Literature values as cited in US20220370316A1, “BIOCIDE PRODUCT OF BROAD, CONTINUOUS AND PROLONGUED EFFECT BASED ON ETHANOL, BENZALKONIUM CHLORIDE AND COPPER NANOPARTICLES” (priority 2021, published 2022).

Experiments:
[1] = system: cutaneous bacteria; details: ethanol at 70% concentration, two minutes, skin kept in contact with the alcohol without drying
[2] = after topical application

CCO [Ethanol, ethanol]
cutaneous bacteria destroyed [1]: approximately 90%

Alkyl-benzyl-dimethyl ammonium chloride [Benzalkonium chloride]
time range of effectivity [2]: ≤ 12 h
